Measurements as given in US20140274785A1, “BIOMARKERS” (priority 2013, published 2014).
Entries after “also recorded” stand apart in the source; their conditions may differ.

Legend:
SOD1-G93A TGN mice = assay: Onset of symptoms (stride length/gait analysis) and death in SOD1-G93A TGN mice, treatment started presymptomatic (7 weeks); assay type: in vivo, mouse; settings: for Onset of motor deficits: vehicle 20% cyclodextran 88-100 days; for Mortality: vehicle 20% cyclodextran 105-112 days
Description: The one and two-drug treatments were started at an early (i.e., presymptomatic) stage of disease (7 weeks). SOD1-G93A TGN mice were treated 3 times a week with noscapine (0.2 mg/kg body weight) and/or MK-801 (12 mg/kg body weight/day). Mice received noscapine intraperitoneally and MK-801 in drinking water.
Female SOD-1 G93A TGN mice were obtained from Jackson laboratory (strain #2726). The controls were matched litter mates. Treatment groups were three per group. Noscapine was injected intraperitoneal in the thigh 3 times/week (0.2 mg/kg i.p.) and MK801 was administered continuously in drinking water (12 mg/kg/d). Gait analysis was done by the method of Wooley et al., Muscle Nerve 2005 32(1):43-50 and Carter et al. J. Neurosci., 19(8):3248-3257, hereby incorporated by reference in their entirety.
For clinical assessment endpoints scoring was selected as follows:
Clinical signs: Full mobility and no observable difference in behavior from age-matched controls (Gait or stride length analysis).
Clinical signs: Abnormal Gait or stride length analysis and hindlimb weakness: >40% reduction in stride length vs. age-matched littermates.
Clinical signs: noticeable and complete hind limb paralysis (which in this strain occurs more on one limb than the other) and inability to right themselves in 5 sec time window. This stage starts usually as the mice are failing the gait analysis test and enter the End stage. Therefore, Transgenic SOD1-G93A TGN mice are euthanized at the onset of noticeable and complete hindlimb paralysis and inability to right themselves in 5 sec time window.

[1] = test system: fast axonal transport of 2H-labeled cargo proteins; assay: MT-mediated fast axonal transport: CSF secretion kinetics and spinal cord retention of 2H-labeled cargo proteins in symptomatic SOD1G93A mice; assay type: in vivo, mouse
hyperdynamic MTs = assay: Microtubule turnover in MPTP-injected PD mouse model; assay type: in vivo; settings: treatment from 7 days after last MPTP injection for 10 days; n=4
Description: FIGS. 28A-28B show an illustration of altered microtubule (MT) turnover in two preclinical models of Parkinson's disease (PD). (A) The acute MPTP intoxication PD model (8 wk old C57b1/6 mice were injected four times with 20 mg/kg on 1 day, at 2 h interval) show hyperdynamic tau-associated and cold-stable (CS) MTs in striatum and substantia nigra at 3 and 7 days after the last (fourth) MPTP injection (n=4 per group, males aged 8 weeks, mean±SD; *P<0.001). (B) In vivo MT dynamics was measured in substantia nigra and striatum at presymptomatic (4 and 10 months) and symptomatic (15 months) disease stage in transgenic alpha-synucleinA53T PD mice (−/−/SNCAA53T). […]
FIGS. 29A-29C show normalized microtubule (MT) turnover correlate with reverse of symptoms in the MPTP-injected PD mouse model after treatment with the MTMA noscapine. […] Neuromuscular strength was measured using the grip strength test (B) and the grid hang test (C). Grip strength test measured the tension peak of pull (gram of force) by the forepaws and it was performed 1 day before (day 0), 1, 2, 3, 4, 5, 7 and 17 days after the last (fourth) MPTP injection (n=10, males per each time point). The hang test was performed 17 days after the last (fourth) MPTP-injection and percentage of success was recorded as maximum time hanging/300 sec×100 (n=10, males per each time point).

MPTP-injected mice = assay: Neuromuscular strength (grip strength test, grid hang test) in MPTP-injected mice; assay type: in vivo, mouse; settings: treatment from 7 days after last MPTP injection for 10 days; n=10
Description: Noscapine was administered at 7 days after the last MPTP-injection, treatment was for 10 days and a pulse of ^2H2O labeling was administered the last day of treatment (17 days after, fourth, MPTP injection). […] Neuromuscular strength was measured using the grip strength test (B) and the grid hang test (C). […] The hang test was performed 17 days after the last (fourth) MPTP-injection and percentage of success was recorded as maximum time hanging/300 sec×100 (n=10, males per each time point).

[2] = test system: transport of neuronal cargo proteins; assay: CSF secretion kinetics of 2H-labeled cargo proteins in symptomatic PD MPTP-injected mice; assay type: in vivo, mouse
Description: Noscapine was administered 7 days after the last MPTP injection, treatment was for 10 days, and a pulse of ^2H2O labeling was administered on the last day of treatment (17 days after the fourth and final MPTP injection

SMILES | Onset of motor deficits (SOD1-G93A TGN mice) [days] | Mortality (SOD1-G93A TGN mice) [days] | MT-mediated fast axonal transport rates of 2H-label neuregulin-1 and chromogranin-B containing synaptic vesicles ([1]; 3 weeks treatment, 100 mg/kg/d and 200 mg/kg/d, 13 weeks mice) | kinetic of 2H-alpha synuclein in CSF ([1]; symptomatic ALS SOD1G93A) | transport rates of 2H-Chr-B, 2H-NeuR-1 and 2H-sAPP in CSF ([1]; symptomatic ALS SOD1G93A, vs age-matched wild type, n=10 per time point) | hyperdynamic MTs (hyperdynamic MTs) | symptoms (grip strength test, grid hang test) (MPTP-injected mice) | kinetics of 2H-NeuR-1 in CSF ([2]; symptomatic PD MPTP-injected mice) | kinetics of secretion of 2H-Chr-B, 2H-sAPP in CSF ([2]; treatment from 7 days after last MPTP injection for 10 days, n=10 per time point)
C[C@]12N[C@H](Cc3ccccc31)c1ccccc12 [MK-801, Dizocilipine] | 105 to 112 | 112 to 119 | – | – | – | – | – | – | –
COc1ccc2c(c1OC)C(=O)O[C@@H]2[C@H]1c2c(cc3c(c2OC)OCO3)CCN1C [Noscapine, noscapine] | 98 to 105 | 112 to 119 | normalized; also recorded: improves this delayed fast axonal transport | not adversely affected | normalized transport rates | reduced hyperdynamic MTs | reverses symptoms | not adversely affected | normalized the kinetics of secretion
